Data taken from patent publication US20150125509A1, “TREATMENT OF FISH POPULATIONS WITH LUFENURON” (priority 2012, published 2015).

System: L. salmonis
Assay: Example 2: in-feed treatment in fresh water hatchery, natural sea louse infestation after sea transfer, L. salmonis counts
Assay type: in vivo, Lepeophtheirus salmonis on Atlantic salmon (Salmo salar)
Conditions: for L. salmonis: all stages, Treated, counts / L. salmonis: pre- & adults, Efficacy / L. salmonis: pre- & adults, Treated, counts: fresh water
Method: Three groups of 400 Atlantic salmon (Salmo salar) of average weight 80 g were treated with medicated pellets containing lufenuron to deliver doses equivalent to 1, 5 and 10 mg/kg/day over 7 consecutive days. A fourth group containing 400 salmon of average weight 80 g was added to the study as a non-treated control group. The medicated pellets were prepared by coating commercially available fish feed pellets with a lufenuron-containing pre-mix to reach a content of 0.005, 0.025 and 0.05% (w/w) lufenuron in the fish feed. The groups were randomized and the identity of the feeds blinded to the site staff. The treatment was undertaken in a fresh water hatchery and the fish transferred to sea water within 7 days of completion of treatment.
On transfer to sea each group was split into two cages and all cage groups were maintained in separate randomized cages.
After treatment, the fish were exposed to natural sea louse infestation. During the study the temperature varied between 1.9 and 8.1° C. Fish weights were assessed at allocation to cages, again approximately 2 weeks after the sea transfer and then at 4 weekly intervals. Sea louse numbers were assessed at approximately 2 weeks after the sea transfer and then at 4 weekly intervals. The numbers of chalimus, pre-adults and adult male, mobile and mature female L. salmonis were recorded for each fish. No distinction was made between chalimus stages I-IV or between pre-adult and adult male stages. Total numbers of Caligus elongatus were also recorded but no significant infestation was established to enable an assessment of efficacy.
Efficacy was calculated using the formula:
% Efficacy=100−(100×mean of treatment group/mean of control).

[1] = 1 mg/kg/day 7 days in-feed, 15 days post sea transfer
[2] = 1 mg/kg/day 7 days in-feed, 42 days post sea transfer
[3] = 1 mg/kg/day 7 days in-feed, 76 days post sea transfer
[4] = 1 mg/kg/day 7 days in-feed, 98 days post sea transfer
[5] = 1 mg/kg/day 7 days in-feed, 125 days post sea transfer
[6] = 1 mg/kg/day 7 days in-feed, 154 days post sea transfer
[7] = 5 mg/kg/day 7 days in-feed, 15 days post sea transfer
[8] = 5 mg/kg/day 7 days in-feed, 76 days post sea transfer
[9] = 5 mg/kg/day 7 days in-feed, 98 days post sea transfer
[10] = 5 mg/kg/day 7 days in-feed, 125 days post sea transfer
[11] = 5 mg/kg/day 7 days in-feed, 154 days post sea transfer
[12] = 10 mg/kg/day 7 days in-feed, 15 days post sea transfer
[13] = 10 mg/kg/day 7 days in-feed, 76 days post sea transfer
[14] = 10 mg/kg/day 7 days in-feed, 98 days post sea transfer
[15] = 10 mg/kg/day 7 days in-feed, 125 days post sea transfer
[16] = 10 mg/kg/day 7 days in-feed, 154 days post sea transfer

In the case of `O=C(NC(=O)c1c(F)cccc1F)Nc1cc(Cl)c(OC(F)(F)C(F)C(F)(F)F)cc1Cl` (stereo not shown) [lufenuron, N-{[2,5-Dichlor-4-(1,1,2,3,3,3-hexafluorpropoxy)phenyl]carbamoyl}-2,6-difluorbenzamid], the “L. salmonis: all stages, Treated, counts” value [1] was 0, the “L. salmonis: pre- & adults, Efficacy” value [1] was 100% and the “L. salmonis: pre- & adults, Treated, counts” value [1] was 0. For the same molecule, the “L. salmonis: all stages, Treated, counts” value [2] was 0, the “L. salmonis: pre- & adults, Efficacy” value [2] was 100% and the “L. salmonis: pre- & adults, Treated, counts” value [2] was 0. The “L. salmonis: all stages, Treated, counts” value [3] was 0.1, the “L. salmonis: pre- & adults, Efficacy” value [3] was 96.2% and the “L. salmonis: pre- & adults, Treated, counts” value [3] was 0.1. The “L. salmonis: all stages, Treated, counts” value [4] was 0.8, the “L. salmonis: pre- & adults, Efficacy” value [4] was 83.9% and the “L. salmonis: pre- & adults, Treated, counts” value [4] was 0.45. For the same molecule, the “L. salmonis: all stages, Treated, counts” value [5] was 0.4, the “L. salmonis: pre- & adults, Efficacy” value [5] was 92.9% and the “L. salmonis: pre- & adults, Treated, counts” value [5] was 0.3. The “L. salmonis: all stages, Treated, counts” value [6] was 0.3, the “L. salmonis: pre- & adults, Efficacy” value [6] was 92.8% and the “L. salmonis: pre- & adults, Treated, counts” value [6] was 0.3. For the same molecule, the “L. salmonis: all stages, Treated, counts” value [7] was 0.1, the “L. salmonis: pre- & adults, Efficacy” value [7] was 100% and the “L. salmonis: pre- & adults, Treated, counts” value [7] was 0. The “L. salmonis: all stages, Treated, counts” value [8] was 0, the “L. salmonis: pre- & adults, Efficacy” value [8] was 100% and the “L. salmonis: pre- & adults, Treated, counts” value [8] was 0. The “L. salmonis: all stages, Treated, counts” value [9] was 0.1, the “L. salmonis: pre- & adults, Efficacy” value [9] was 96.4% and the “L. salmonis: pre- & adults, Treated, counts” value [9] was 0.1. The “L. salmonis: all stages, Treated, counts” value [10] was 0, the “L. salmonis: pre- & adults, Efficacy” value [10] was 100% and the “L. salmonis: pre- & adults, Treated, counts” value [10] was 0. For the same molecule, the “L. salmonis: all stages, Treated, counts” value [11] was 0, the “L. salmonis: pre- & adults, Efficacy” value [11] was 100% and the “L. salmonis: pre- & adults, Treated, counts” value [11] was 0. For the same molecule, the “L. salmonis: all stages, Treated, counts” value [12] was 0.5, the “L. salmonis: pre- & adults, Efficacy” value [12] was 100% and the “L. salmonis: pre- & adults, Treated, counts” value [12] was 0. For the same molecule, the “L. salmonis: all stages, Treated, counts” value [13] was 0, the “L. salmonis: pre- & adults, Efficacy” value [13] was 100% and the “L. salmonis: pre- & adults, Treated, counts” value [13] was 0. For the same molecule, the “L. salmonis: all stages, Treated, counts” value [14] was 0, the “L. salmonis: pre- & adults, Efficacy” value [14] was 100% and the “L. salmonis: pre- & adults, Treated, counts” value [14] was 0. For the same molecule, the “L. salmonis: all stages, Treated, counts” value [15] was 0, the “L. salmonis: pre- & adults, Efficacy” value [15] was 100% and the “L. salmonis: pre- & adults, Treated, counts” value [15] was 0. For the same molecule, the “L. salmonis: all stages, Treated, counts” value [16] was 0, the “L. salmonis: pre- & adults, Efficacy” value [16] was 100% and the “L. salmonis: pre- & adults, Treated, counts” value [16] was 0. The “protected the fish against sea louse infestation until at least (time post-treatment)” value (Example 2, 1 mg/kg treatment) was “five”, the “efficacy over the protection period” value (Example 2, 1 mg/kg treatment, until at least five month post-treatment) was “approximately 90%” and the “protected the fish against sea louse infestation until (time post-treatment)” value (Example 2, 5 mg/kg treatment, study continues) was 5 months. For the same molecule, the “protected the fish against sea louse infestation up to (time post-treatment)” value (Example 2, 10 mg/kg treatment, study continues) was 5 months.
